# Assay results as given in patent US9102638B2, “Amidobenzothiazoles and process for the preparation thereof” (COUNCIL OF SCIENTIFIC & INDUSTRIAL RESEARCH, priority 2011, dated 2015).
# Assays:
# Type in all cases: cell-based
# SR = test: In vitro cytotoxicity, NCI screen: SR (Leukemia); conditions: Homo sapiens, Leukemia panel, NCI protocol, read-out: GI50 values (μM conc.)
# Description: (§1) The in vitro anticancer activity studies for these amidobenzothiazoles were carried out at the National Cancer Institute, Maryland, USA.
# (§2) The amidobenzothiazoles have been tested against sixty human tumor cell lines derived from nine cancer types (leukemia cancer cell line, non-small cell lung cancer cell line, colon cancer cell line, CNS cancer cell line, melanoma cancer cell line, ovarian cancer cell line, renal cancer cell line, prostate cancer cell line and breast cancer cell lines). For these compounds results are expressed in GI50 values of that particular cancer cell at micro molar (μM) concentration as per NCI protocol.
# 786-0 = test: In vitro cytotoxicity, NCI screen: 786-0 (Renal); conditions: Homo sapiens; 786-0, Renal panel, NCI protocol; read-out: GI50 values (μM conc.)
# Description: as §1, §2
# RPMI-8226 = test: In vitro cytotoxicity, NCI screen: RPMI-8226 (Leukemia); conditions: Homo sapiens; RPMI-8226, Leukemia panel, NCI protocol; read-out: GI50 values (μM conc.)
# Description: as §1, §2
# UACC-62 = test: In vitro cytotoxicity, NCI screen: UACC-62 (Melanoma); conditions: Homo sapiens; UACC-62, Melanoma panel, NCI protocol; read-out: GI50 values (μM conc.)
# Description: as §1, §2
# MOLT-4 = test: In vitro cytotoxicity, NCI screen: MOLT-4 (Leukemia); conditions: Homo sapiens; MOLT-4, Leukemia panel, NCI protocol; read-out: GI50 values (μM conc.)
# Description: as §1, §2
# M14 = test: In vitro cytotoxicity, NCI screen: M14 (Melanoma); conditions: Homo sapiens; M14, Melanoma panel, NCI protocol; read-out: GI50 values (μM conc.)
# Description: as §1, §2
# SNB-75 = test: In vitro cytotoxicity, NCI screen: SNB-75 (CNS); conditions: Homo sapiens; SNB-75, CNS panel, NCI protocol; read-out: GI50 values (μM conc.)
# Description: as §1, §2
# OVCAR-5 = test: In vitro cytotoxicity, NCI screen: OVCAR-5 (Ovarian); conditions: Homo sapiens; OVCAR-5, Ovarian panel, NCI protocol; read-out: GI50 values (μM conc.)
# Description: as §1, §2
# SF-268 = test: In vitro cytotoxicity, NCI screen: SF-268 (CNS); conditions: Homo sapiens, read-out: GI50 values (μM conc.)
# Description: as §1, §2
# MALME-3M = test: In vitro cytotoxicity, NCI screen: MALME-3M (Melanoma); conditions: Homo sapiens, Melanoma panel, NCI protocol, read-out: GI50 values (μM conc.)
# Description: as §1, §2
# SW-620 = test: In vitro cytotoxicity, NCI screen: SW-620 (Colon); conditions: Homo sapiens; SW-620, Colon panel, NCI protocol; read-out: GI50 values (μM conc.)
# Description: as §1, §2
# NCI-H322M = test: In vitro cytotoxicity, NCI screen: NCI-H322M (Non-small cell lung); conditions: Homo sapiens, Non-small cell lung panel, NCI protocol, read-out: GI50 values (μM conc.)
# Description: as §1, §2
# SF-295 = test: In vitro cytotoxicity, NCI screen: SF-295 (CNS); conditions: Homo sapiens; SF-295, CNS panel, NCI protocol; read-out: GI50 values (μM conc.)
# Description: as §1, §2
# A549/ATCC = test: In vitro cytotoxicity, NCI screen: A549/ATCC (Non-small cell lung); conditions: Homo sapiens, Non-small cell lung panel, NCI protocol, read-out: GI50 values (μM conc.)
# Description: as §1, §2
# ACHN = test: In vitro cytotoxicity, NCI screen: ACHN (Renal); conditions: Homo sapiens, Renal panel, NCI protocol, read-out: GI50 values (μM conc.)
# Description: as §1, §2
# CCRF-CEM = test: In vitro cytotoxicity, NCI sixty cell line screen: CCRF-CEM (Leukemia); conditions: Homo sapiens, Leukemia panel, NCI protocol, read-out: GI50 values (μM conc.)
# Description: as §1, §2
# NCI-H23 = test: In vitro cytotoxicity, NCI screen: NCI-H23 (Non-small cell lung); conditions: Homo sapiens; NCI-H23, Non-small cell lung panel, NCI protocol; read-out: GI50 values (μM conc.)
# Description: as §1, §2
# COLO-205 = test: In vitro cytotoxicity, NCI screen: COLO-205 (Colon); conditions: Homo sapiens; COLO-205, Colon panel, NCI protocol; read-out: GI50 values (μM conc.)
# Description: as §1, §2
# [1] = system: leukemia cancer cell lines; test: In vitro activity against leukemia cancer cell lines (panel range); conditions: Homo sapiens, read-out: GI50 values, range over the listed compounds and the panel
# Description: as §1, §2
# IGROV1 = test: In vitro cytotoxicity, NCI screen: IGROV1 (Ovarian); conditions: Homo sapiens, IGROV-1; IGROV1, Ovarian panel, NCI protocol; read-out: GI50 values (μM conc.)
# Description: as §1, §2
# MCF7 = test: In vitro cytotoxicity, NCI screen: MCF7 (Breast); conditions: Homo sapiens; MCF7, Breast panel, NCI protocol; read-out: GI50 values (μM conc.)
# Description: as §1, §2
# A498 = test: In vitro cytotoxicity, NCI screen: A498 (Renal); conditions: Homo sapiens; A498, Renal panel, NCI protocol; read-out: GI50 values (μM conc.)
# Description: as §1, §2
# SN12C = test: In vitro cytotoxicity, NCI screen: SN12C (Renal); conditions: Homo sapiens, Renal panel, NCI protocol, read-out: GI50 values (μM conc.)
# Description: as §1, §2
# RXF 393 = test: In vitro cytotoxicity, NCI screen: RXF 393 (Renal); conditions: Homo sapiens; RXF 393, Renal panel, NCI protocol; read-out: GI50 values (μM conc.)
# Description: as §1, §2
# HCT-15 = test: In vitro cytotoxicity, NCI screen: HCT-15 (Colon); conditions: Homo sapiens; HCT-15, Colon panel, NCI protocol; read-out: GI50 values (μM conc.)
# Description: as §1, §2
# HOP-92 = test: In vitro cytotoxicity, NCI screen: HOP-92 (Non-small cell lung); conditions: Homo sapiens; HOP-92, Non-small cell lung panel, NCI protocol; read-out: GI50 values (μM conc.)
# Description: as §1, §2
# K-562 = test: In vitro cytotoxicity, NCI screen: K-562 (Leukemia); conditions: Homo sapiens, K562; read-out: GI50 values (μM conc.)
# Description: as §1, §2
# SF-539 = test: In vitro cytotoxicity, NCI screen: SF-539 (CNS); conditions: Homo sapiens, read-out: GI50 values (μM conc.)
# Description: as §1, §2
# UACC-257 = test: In vitro cytotoxicity, NCI screen: UACC-257 (Melanoma); conditions: Homo sapiens; UACC-257, Melanoma panel, NCI protocol; read-out: GI50 values (μM conc.)
# Description: as §1, §2
# MDA-MB-435 = test: In vitro cytotoxicity, NCI screen: MDA-MB-435 (Melanoma); conditions: Homo sapiens; MDA-MB-435, Melanoma panel, NCI protocol; read-out: GI50 values (μM conc.)
# Description: as §1, §2
# HT29 = test: In vitro cytotoxicity, NCI screen: HT29 (Colon); conditions: Homo sapiens, HT-29; HT29, Colon panel, NCI protocol; read-out: GI50 values (μM conc.)
# Description: as §1, §2
# [2] = system: prostate cancer cell lines; test: In vitro activity against prostate cancer cell lines (panel range); conditions: Homo sapiens, read-out: GI50 values, range over the listed compounds and the panel
# Description: as §1, §2
# MDA-MB-231/ATCC = test: In vitro cytotoxicity, NCI screen: MDA-MB-231/ATCC (Breast); conditions: Homo sapiens, Breast panel, NCI protocol, read-out: GI50 values (μM conc.)
# Description: as §1, §2
Structure (SMILES),GI50 (SR) [µM],GI50 (786-0) [µM],GI50 (RPMI-8226) [µM],GI50 (UACC-62) [µM],GI50 (MOLT-4) [µM],GI50 (M14) [µM],GI50 (SNB-75) [µM],GI50 (OVCAR-5) [µM],GI50 (SF-268) [µM],GI50 (MALME-3M) [µM],GI50 (SW-620) [µM],GI50 (NCI-H322M) [µM],GI50 (SF-295) [µM],GI50 (A549/ATCC) [µM],GI50 (ACHN) [µM],GI50 (CCRF-CEM) [µM],GI50 (NCI-H23) [µM],GI50 (COLO-205) [µM],GI50 [1] [µM],GI50 (IGROV1) [µM],also measured
"COc1ccc(/C=C\c2cc(OC)c(OC)c(OC)c2)cc1OCC(=O)Nc1nc2ccc(C(F)(F)F)cc2s1 [Compound 8i, N1-(6-(trifluoromethyl)-1,3-benzothiazol-2-yl)-2-{2-methoxy-5-[(Z)-2-(3,4,5-trimethoxyphenyl)-1-ethenyl]phenoxy}acetamide]",3.35,6.96,5.48,3.9,3.75,3.58,1.58,5.98,3.85,> 100,4.65,5.38,3.36,4.46,4.82,4.27,3.9,17.1,0.037 to 29.9,4.48,GI50 (MCF7): 3.16 µM; GI50 (A498): 2.81 µM; GI50 (SN12C): 4.43 µM; GI50 (RXF 393): 2.27 µM; GI50 (HCT-15): 3.24 µM; GI50 (HOP-92): 2.88 µM; GI50 (K-562): 3.3 µM; GI50 (SF-539): 2.66 µM; GI50 (UACC-257): 40 µM; GI50 (MDA-MB-435): 1.84 µM; GI50 (HT29): 14.9 µM; GI50 [2]: 0.18 to 22.9 µM; GI50 (MDA-MB-231/ATCC): 3.38 µM
"COc1ccc(/C=C/C(=O)c2cc(OC)c(OC)c(OC)c2)cc1OCC(=O)Nc1nc2ccc(OC(F)(F)F)cc2s1 [Compound 9j, N1-(6-(trifluoromethoxy)-1,3-benzothiazol-2-yl)-2-{2-methoxy-5-[(E)-3-oxo-3-(3,4,5-trimethoxyphenyl)-1-propenyl]phenoxy}acetamide]",0.39,2.26,2.02,9.52,2.89,1.72,0.34,4.76,1.2,2.69,1.08,2.77,2.21,1.99,1.62,2.5,2.15,6.37,0.037 to 29.9,2.54,GI50 (MCF7): 1.32 µM; GI50 (A498): 7.4 µM; GI50 (SN12C): 1.74 µM; GI50 (RXF 393): 1.58 µM; GI50 (HCT-15): 0.4 µM; GI50 (HOP-92): 2.14 µM; GI50 (K-562): 0.43 µM; GI50 (SF-539): 0.29 µM; GI50 (UACC-257): 8.08 µM; GI50 (MDA-MB-435): 0.3 µM; GI50 (HT29): 3.66 µM; GI50 [2]: 0.18 to 22.9 µM; GI50 (MDA-MB-231/ATCC): 2.01 µM
